Measured values reported in ChEMBL document CHEMBL1949508, “The selective cytotoxic activity in breast cancer cells by an anthranilic alcohol-derived acyclic 5-fluorouracil O,N-acetal is mediated by endoplasmic reticulum stress-induced apoptosis” (Eur J Med Chem, 2012).
Activity calls are given as the source filed them. The calls are words filed in the database; no cut-off is given here.

Key:
MCF-10A [1] = assay: Upregulation of BBC3 protein expression in human MCF10A cells at 37.67 uM after 48 hrs by Western blot analysis relative to control; assay type: functional
MCF-10A [2] = assay: Induction of necrosis in human MCF10A cells assessed as necrotic cells at 37.67 uM after 48 hrs by annexinV-FITC/PI-based flow cytometry (reference value: 0.6 +/- 0.13%); assay type: cell-based
MCF7 [3] = assay: Upregulation of NOXA gene in human MCF7 cells at 1.09 uM after 48 hrs by quantitative RT-PCR analysis; assay type: functional, cell-based
MCF7 [4] = assay: Upregulation of BBC3 gene in human MCF7 cells at 1.09 uM after 48 hrs by microarray hybridization relative to control; assay type: functional
MCF7 [5] = assay: Downregulation of […] gene in human MCF7 cells at 1.09 uM after 48 hrs by microarray hybridization relative to control; assay type: functional
MCF-10A [6] = assay: Upregulation of BBC3 gene in human MCF10A cells at 37.67 uM after 48 hrs by microarray hybridization relative to control; assay type: functional, cell-based
MCF7 [7] = assay: Upregulation of DNASE1 gene in human MCF7 cells at 1.09 uM after 48 hrs by microarray hybridization relative to control; assay type: functional
MCF-10A [8] = assay: Downregulation of AVEN gene in human MCF10A cells at 37.67 uM after 48 hrs by microarray hybridization relative to control; assay type: functional, cell-based
MCF7 [9] = assay: Induction of apoptosis in human MCF7 cells assessed as early apoptotic cells at 1.09 uM after 48 hrs by annexinV-FITC/PI-based flow cytometry (reference value: 3.27 +/- 0.67%); assay type: functional
MCF7 [10] = assay: Antiproliferative activity against human MCF7 cells after 3 days by SRB assay; assay type: functional, cell-based; conditions: MCF7, 72 h
MCF7 [11] = assay: Upregulation of BNIP3L gene in human MCF7 cells at 1.09 uM after 48 hrs by microarray hybridization relative to control; assay type: functional
MCF-10A [12] = assay: Downregulation of CARD9 gene in human MCF10A cells at 37.67 uM after 48 hrs by microarray hybridization relative to control; assay type: functional, cell-based
MCF7 [13] = assay: Induction of apoptosis in human MCF7 cells assessed as late apoptotic cells at 1.09 uM after 48 hrs by annexinV-FITC/PI-based flow cytometry (reference value: 0.11 +/- 0.02%); assay type: functional
MCF7 [14] = assay: Upregulation of GADD45B gene in human MCF7 cells at 1.09 uM after 48 hrs by microarray hybridization relative to control; assay type: functional
MCF-10A [15] = assay: Cytotoxicity against human MCF10A cells after 3 days by SRB assay; assay type: cell-based; conditions: 72 h
MCF-10A [16] = assay: Induction of apoptosis in human MCF10A cells assessed as late apoptotic cells at 37.67 uM after 48 hrs by annexinV-FITC/PI-based flow cytometry (reference value: 0.21 +/- 0.1%); assay type: cell-based
[17] = Therapeutic index, ratio of IC50 for human MCF10A cells to IC50 for human MCF7 cells; assay type: cell-based; conditions: MCF10A cells and MCF7 cells, read-out: Ratio IC50
MCF-10A [18] = assay: Downregulation of CD14 gene in human MCF10A cells at 37.67 uM after 48 hrs by microarray hybridization relative to control; assay type: functional, cell-based
MCF-10A [19] = assay: Downregulation of E2F1 gene in human MCF10A cells at 37.67 uM after 48 hrs by microarray hybridization relative to control; assay type: functional, cell-based
MCF-10A [20] = assay: Downregulation of CCL2 gene in human MCF10A cells at 37.67 uM after 48 hrs by microarray hybridization relative to control; assay type: functional, cell-based
MCF7 [21] = assay: Upregulation of BMF gene in human MCF7 cells at 1.09 uM after 48 hrs by microarray hybridization relative to control; assay type: functional
MCF7 [22] = assay: Downregulation of BCL2 gene in human MCF7 cells at 1.09 uM after 48 hrs by microarray hybridization relative to control; assay type: functional
MCF-10A [23] = assay: Upregulation of DNASE1 gene in human MCF10A cells at 37.67 uM after 48 hrs by microarray hybridization relative to control; assay type: functional, cell-based
MCF-10A [24] = assay: Downregulation of BAG2 gene in human MCF10A cells at 37.67 uM after 48 hrs by microarray hybridization relative to control; assay type: functional, cell-based
MCF-10A [25] = assay: Downregulation of BCL2 gene in human MCF10A cells at 37.67 uM after 48 hrs by microarray hybridization relative to control; assay type: functional, cell-based
MCF-10A [26] = assay: Upregulation of BNIP3L gene in human MCF10A cells at 37.67 uM after 48 hrs by microarray hybridization relative to control; assay type: functional, cell-based
MCF-10A [27] = assay: Upregulation of GADD45A gene in human MCF10A cells at 37.67 uM after 48 hrs by microarray hybridization relative to control; assay type: functional, cell-based
MCF7 [28] = assay: Downregulation of CD14 gene in human MCF7 cells at 1.09 uM after 48 hrs by microarray hybridization relative to control; assay type: functional
MCF7 [29] = assay: Modulation of p53 gene expression in human MCF7 cells at 1.09 uM after 48 hrs by quantitative RT-PCR analysis; assay type: functional, cell-based
MCF-10A [30] = assay: Upregulation of GADD45B gene in human MCF10A cells at 37.67 uM after 48 hrs by microarray hybridization relative to control; assay type: functional, cell-based
MCF7 [31] = assay: Upregulation of BNIP3 gene in human MCF7 cells at 1.09 uM after 48 hrs by microarray hybridization relative to control; assay type: functional
MCF7 [32] = assay: Downregulation of BAG2 gene in human MCF7 cells at 1.09 uM after 48 hrs by microarray hybridization relative to control; assay type: functional

COC(CN(c1ccccc1CO)S(=O)(=O)c1ccccc1N)n1cc(F)c(=O)[nH]c1=O (racemic)
fold change (FC) (MCF-10A [1]): 1.13 | Activity (MCF-10A [2]): 49.24% | Activity (MCF7 [3]): Active | fold change (FC) (MCF7 [4]): 3.78 | fold change (FC) (MCF7 [5]): -2.62 | Activity (MCF-10A [6]): inactive | fold change (FC) (MCF7 [7]): 2.07 | Activity (MCF-10A [8]): inactive | Activity (MCF7 [9]): 13.73% | IC50 (MCF7 [10]): 1.09 µM | fold change (FC) (MCF7 [11]): 2.84 | Activity (MCF-10A [12]): inactive | Activity (MCF7 [13]): 77.4% | fold change (FC) (MCF7 [14]): 2.2 | IC50 (MCF-10A [15]): 37.7 µM | Activity (MCF-10A [16]): 17.29% | selectivity ratio [17]: 34.5 | Activity (MCF-10A [18]): inactive | Activity (MCF-10A [19]): inactive | Activity (MCF-10A [20]): inactive | fold change (FC) (MCF7 [21]): 3 | fold change (FC) (MCF7 [22]): -2.26 | Activity (MCF-10A [23]): inactive | Activity (MCF-10A [24]): inactive | Activity (MCF-10A [25]): inactive | Activity (MCF-10A [26]): inactive | Activity (MCF-10A [27]): inactive | fold change (FC) (MCF7 [28]): -2.61 | Activity (MCF7 [29]): inactive | Activity (MCF-10A [30]): inactive | fold change (FC) (MCF7 [31]): 2.65 | fold change (FC) (MCF7 [32]): -2.32
